Test results from US20260325685A1, “Radiopharmaceutical Compositions Targeting Carbonic Anhydrase IX and Uses Thereof” (RayzeBio, Inc., priority 2023, published 2026).

Assays:
human CA-XII = biological target: T1, human CA-XII (Homo sapiens, UniProt O43570); assay: Surface Plasmon Resonance (SPR) binding kinetics to recombinant human CA-XII (Biacore 8K, single-cycle kinetics, 1:1 binding model); details: Chelated Metal: Lu-175, 25° C., pH 7.4, read-out: CAXII KD
T1 construct: purchased Creative BioMart CA12-261H
In short: (§1)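 Proteins were captured on streptavidin chips at 1200-1800 RU (CA-IX 180 s, CA-XII 75 s injection). Compound was run at 9 concentrations (100-0.39 nM) in PBS-P+ pH 7.4 with 1% DMSO, 120 s association, 1200 s dissociation, 25° C. Rate constants came from reference- and DMSO-corrected curves.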

human CA-IX = biological target: T2, human CA-IX (Homo sapiens, UniProt Q16790); assay: Surface Plasmon Resonance (SPR) binding kinetics to recombinant human CA-IX (Biacore 8K, single-cycle kinetics, 1:1 binding model); details: Chelated Metal: Lu-175; SPR, 25° C., pH 7.4; read-out: CAIX KD
T2 construct: purchased Acro CA9-H82E3
In short: as §1

T1 sequence (O43570 25-354): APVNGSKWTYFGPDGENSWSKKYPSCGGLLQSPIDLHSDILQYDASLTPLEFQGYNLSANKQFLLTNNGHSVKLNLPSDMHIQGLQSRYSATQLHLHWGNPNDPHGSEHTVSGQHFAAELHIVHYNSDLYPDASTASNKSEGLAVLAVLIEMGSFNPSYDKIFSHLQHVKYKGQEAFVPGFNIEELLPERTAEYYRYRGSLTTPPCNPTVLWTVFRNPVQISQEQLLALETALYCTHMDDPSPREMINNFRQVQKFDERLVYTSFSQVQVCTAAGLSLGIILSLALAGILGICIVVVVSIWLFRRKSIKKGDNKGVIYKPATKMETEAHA

Row | Structure (SMILES) | Kd (human CA-XII) [nM] | Kd (human CA-IX) [nM]
1 | CC(CCC(=O)N[C@@H](CC(=O)N[C@@H](CC(=O)N1CCN(C(=O)CN2CCN(CC(=O)O)CCN(CC(=O)O)CCN(CC(=O)O)CC2)CC1C(=O)NCCn1cc(C23CCC(C(=O)Nc4nnc(S(N)(=O)=O)s4)(CC2)C3)nn1)C(=O)O)C(=O)O)(c1ccc(O)cc1)c1ccc(O)cc1.[Lu+3] (stereo partly shown) [Compound 107.1] | < 1 | < 1
2 | CC(CCC(=O)N[C@@H](CC(=O)N[C@@H](CC(=O)N1CCN(C(=O)CN2CCN(CC(=O)O)CCN(CC(=O)O)CCN(CC(=O)O)CC2)C[C@H]1C(=O)NCCn1cc(C23CCC(C(=O)Nc4nnc(S(N)(=O)=O)s4)(CC2)C3)nn1)C(=O)O)C(=O)O)(c1ccc(O)cc1)c1ccc(O)cc1.[Lu+3] [Compound 107.2] | < 1 | < 1
3 | CC(CCC(=O)N[C@@H](CC(=O)N[C@@H](CC(=O)N1CCN(C(=O)CN2CCN(CC(=O)O)CCN(CC(=O)O)CCN(CC(=O)O)CC2)C[C@@H]1C(=O)NCCn1cc(C23CC(C(=O)Nc4nnc(S(N)(=O)=O)s4)(C2)C3)nn1)C(=O)O)C(=O)O)(c1ccc(O)cc1)c1ccc(O)cc1.[Lu+3] [Compound 107.3] | > 10 | 1 to 2.5
4 | CC(CCC(=O)N1CCC(C(=O)O)(C(=O)NCC(=O)N2CCN(C(=O)CN3CCN(CC(=O)O)CCN(CC(=O)O)CCN(CC(=O)O)CC3)C[C@@H]2C(=O)NCCn2cc(C34CC(C(=O)Nc5nnc(S(N)(=O)=O)s5)(C3)C4)nn2)CC1)(c1ccc(O)cc1)c1ccc(O)cc1.[Lu+3] [Compound 107.4] | > 10 | 1 to 2.5
5 | CC(CCC(=O)N[C@@H](CC(=O)N[C@@H](CC(=O)N1CCN(C(=O)CN2CCN(CC(=O)O)CCN(CC(=O)O)CCN(CC(=O)O)CC2)C[C@H]1C(=O)NCCn1cc(C23CCC(C(=O)Nc4nnc(S(N)(=O)=O)s4)(C2)C3)nn1)C(=O)O)C(=O)O)(c1ccc(O)cc1)c1ccc(O)cc1.[Lu+3] [Compound 107.5] | < 1 | < 1
6 | CC(CCCC(=O)N1CCC(C(=O)O)(C(=O)NCC(=O)N2CCN(C(=O)CN3CCN(CC(=O)O)CCN(CC(=O)O)CCN(CC(=O)O)CC3)C[C@@H]2C(=O)NCCn2cc(C34CC(C(=O)Nc5nnc(S(N)(=O)=O)s5)(C3)C4)nn2)CC1)(c1ccc(O)cc1)c1ccc(O)cc1.[Lu+3] [Compound 107.6] | > 10 | < 1
7 | NS(=O)(=O)c1nnc(NC(=O)C23CCC(c4cn(CCNC(=O)[C@@H]5CN(C(=O)CN6CCN(CC(=O)O)CCN(CC(=O)O)CCN(CC(=O)O)CC6)CCN5C(=O)CNC(=O)C5(C(=O)O)CCN(C(=O)CCCc6ccc(O)cc6)CC5)nn4)(CC2)CC3)s1.[Lu+3] [Compound 107.7] | 1 to 2.5 | < 1
8 | CC(CCC(=O)N1CCOC[C@H]1C(=O)N[C@@H](CC(=O)N1CCN(C(=O)CN2CCN(CC(=O)O)CCN(CC(=O)O)CCN(CC(=O)O)CC2)C[C@@H]1C(=O)NCCn1cc(C23CC(C(=O)Nc4nnc(S(N)(=O)=O)s4)(C2)C3)nn1)C(=O)O)(c1ccc(O)cc1)c1ccc(O)cc1.[Lu+3] [Compound 107.8] | > 10 | 1 to 2.5
9 | CC(CCCC(=O)N1CCC(C(=O)O)(C(=O)NCC(=O)N2CCN(C(=O)CN3CCN(CC(=O)O)CCN(CC(=O)O)CCN(CC(=O)O)CC3)C[C@H]2C(=O)NCCn2cc(C34CCC(C(=O)Nc5nnc(S(N)(=O)=O)s5)(CC3)CC4)nn2)CC1)(c1ccc(O)cc1)c1ccc(O)cc1.[Lu+3] [Compound 107.9] | 1 to 2.5 | < 1
10 | NS(=O)(=O)c1nnc(NC(=O)C23CCC(c4cn(CCNC(=O)[C@@H]5CN(C(=O)CN6CCN(CC(=O)O)CCN(CC(=O)O)CCN(CC(=O)O)CC6)CCN5C(=O)CNC(=O)C5(C(=O)O)CCN(C(=O)CCC6CCCCC6)CC5)nn4)(CC2)CC3)s1.[Lu+3] [Compound 107.10] | < 1 | < 1
11 | CC(CCC(=O)N[C@@H](CCC(=O)N1CCN(C(=O)CN2CCN(CC(=O)O)CCN(CC(=O)O)CCN(CC(=O)O)CC2)C[C@@H]1C(=O)NCCn1cc(C23CC(C(=O)Nc4nnc(S(N)(=O)=O)s4)(C2)C3)nn1)C(=O)O)(c1ccc(O)cc1)c1ccc(O)cc1.[Lu+3] [Compound 107.11] | > 10 | < 1
